Converted amounts (≈) assume the structure as drawn. Read-outs that look alike come from different tables or passages of the source.
Tests used:
[1] = tested on: L. infantum (LV50 and Drep-14) and L. major (Empa-12) promastigotes; test: MTT promastigote viability assay, stated across the three strains; format: cell-based, Leishmania infantum, Leishmania major; conditions: 72 h; for Effect on promastigote viability: three strains, at the tested concentrations
Source text: (§1) Three Tunisian laboratory strains already described ([Oualha et al., 2019]), originally isolated from distinct clinical manifestations were used in this study: (i) L. infantum LV50 MHOM/TN/94/LV50) strain originating from a bone marrow of a visceral leishmaniasis patient, (ii) L. infantum Drep-14 (MHOM/TN/96/Drep-14) strain isolated from a lesion of a sporadic cutaneous leishmaniasis patient and (iii) L. major Empa-12 (MHOM/TN/2012/Empa-12) strain isolated from a zoonotic cutaneous leishmaniasis patient. Stocks of these parasites obtained after passage through BALB/c mice were used as previously described ([Oualha et al., 2019]). Thawed cryopreserved parasites were cultured at 22°C in RPMI-1640/Glutamax medium (Gibco BRL, Germany) containing penicillin (100 U/mL) and streptomycin (100 μg/mL) supplemented with 10% heat-inactivated Fetal Bovine Serum (FBS) (Gibco BRL, Germany).
(§2) The effect of the selected compounds on the viability of Leishmania promastigotes was evaluated by a colorimetric MTT (3-(4,5-dimethylthiazol-2yl)-2,5-diphenyl tetrazolium bromide) assay. It consists in the reduction of tetrazolium salt to a […] crystal (blue formazan) by the succinate dehydrogenase activity of mitochondria in living cells, which can be quantified by spectrophotometry. Briefly, 90 μL of promastigotes (5 × 10^5 parasites/well) harvested from the stationary growth phase of each strain were added to a 96-well culture plate and incubated with 10 μL of a range of serial dilutions of the selected compounds in technical replicates (final concentration of 1% DMSO per well) ([Ioset et al., 2009]; [Harigua-Souiai et al., 2018]). […] After 72h of incubation at 22°C, 25 μl of MTT solution (5 mg/mL) was added to each well and incubated at 22°C for 4h. Then, 150 μl of DMSO was added to each well to dissolve the blue formazan and the optical density (OD) was measured at 570 nm with a microplate reader ([…], Labsystems). Promastigotes incubated in complete medium containing 1% DMSO were used as negative control. The standard anti-Leishmania drug, Amphotericin B was used as a positive control. All experiments were performed in two technical replicates and repeated three times in independent experiments. The mean percentage of promastigotes viability was calculated from the Optical Density at 570 nm as follows:
(§3) Promastigote viability (%)= [(ODcompound− ODblank)/(ODnegative control −ODblank)]*100
(§4) Results were expressed as the mean value of the percentage of promastigotes viability ± standard deviation (SD).

L. infantum [2] = tested on: L. infantum; parameters: method as in Cavalera et al., 2021; conditions: dogs with leishmaniasis and chronic kidney disease; ref Cavalera et al., 2021; cited from earlier work
[3] = tested on: THP-1-derived macrophages; test: Cytotoxicity assay towards THP-1-derived macrophages (MTT); format: cell-based, human
Method: (§5) Louis, MO, USA). The PMA-treated THP-1 cells were maintained in this condition for 24 h, followed by a 24 h of rest period after the removal of PMA. […] The cytotoxicity towards THP-1-derived macrophages was assessed after 24, 48 and 72 hours of incubation by MTT assay as described above. […] The percentage of viable cells was calculated from the Optical Density at 570 nm as follows: […]

[4] = as above; format: cell-based, human; conditions: human, THP-1-derived macrophages (PMA-differentiated), 72 h of treatment, uninfected cells, MTT
Method: as §5

L. infantum [5] = tested on: L. infantum; parameters: method as in Gómez-Ochoa et al., 2009; conditions: 98 dogs naturally infected with L. infantum, 12-months follow-up; ref Gómez-Ochoa et al., 2009; cited from earlier work
[6] = tested on: multiple strains of L. donovani; parameters: method as in Pandharkar et al., 2014; conditions: ref Pandharkar et al., 2014, read-out: IC50 in vitro; cited from earlier work
[7] = tested on: L. infantum Drep-14 promastigotes; test: microbe, parasite or virus in culture; format: cell-based; conditions: Leishmania infantum, 72 h
Source text: as §1, §2, §3, §4

[8] = tested on: L. major and L. infantum amastigotes; test: Anti-amastigote assay, stated across the three strains; format: cell-based, Leishmania infantum, Leishmania major; conditions: CC50/IC50 amastigotes
Method: (§6) THP-1-derived macrophages (5 × 10^4/well) were seeded in each 8-well Labtek slides (Thermo Scientific). Adherent macrophages were obtained as described above, then infected with stationary phase promastigotes of each strain at a ratio 10:1 (10 parasites/macrophage) in RPMI medium containing penicillin (100 U/mL) and streptomycin (100 μg/mL) with 10% fetal bovine serum (Gibco, Brazil) at 37°C in 5% CO2 for 24 h. […] Non-infected control cells were incubated in a supplemented RPMI medium containing 1% DMSO. After 72h of incubation, cells were fixed and stained using May-Grunwald-Giemsa staining with RAL 555 Kit (RAL DIAGNOSTICS, France), following the manufacturer’s instructions. The percentage of infected cells and the total number of internalized parasites per 100 macrophages were determined under immersion oil (magnification of 1000X) using light microscopy. The percentage of amastigotes viability was expressed as the percentage of total number of internalized parasites within treated cells relative to the total number of internalized parasites within control cells treated with 1% DMSO, and calculated as follows:
(§7) Relative amastigote viability (%) = [(number of amastigotes/100 treated cells)/(number of amastigotes/100 treated cells with1% DMSO)] * 100
(§8) The relative percentage of amastigote viability was evaluated to calculate half inhibitory concentrations (IC50). The mean IC50 values were determined by plotting the curves of the logarithm of compound concentrations versus the relative amastigote viability of three independent experiments performed in two technical replicates for each compound fitted into a nonlinear regression model, using GraphPad Prism version 8.0.1. Selectivity Index (SI) values were calculated as the ratio between cytotoxicity and activity against amastigotes and determined for each compound as follows: SI= CC50/IC50.

[9] = tested on: L. major Empa-12 intracellular amastigotes; test: Anti-amastigote assay in THP-1-derived macrophages, L. major Empa-12; format: cell-based, Leishmania major; conditions: for IC50: Leishmania major, Macrophage, Empa-12, intramacrophage, 72 h
Method: as §6, §7, §8

[10] = tested on: L. infantum Drep-14 intracellular amastigotes; test: Anti-amastigote assay in THP-1-derived macrophages, L. infantum Drep-14; format: cell-based, Leishmania infantum; conditions: Leishmania infantum, Macrophage, Drep-14, intramacrophage, 72 h
Method: as §6, §7, §8

[11] = tested on: L. infantum LV50 intracellular amastigotes; test: Anti-amastigote assay in THP-1-derived macrophages, L. infantum LV50; format: cell-based, Leishmania infantum; conditions: for IC50: Leishmania infantum, Macrophage, LV50, intramacrophage, 72 h
Method: as §6, §7, §8

[12] = tested on: L. infantum LV50 promastigotes; test: MTT-based promastigote viability assay, L. infantum LV50; format: cell-based; conditions: Leishmania infantum, LV50, 72 h, MTT
Source text: as §1, §2, §3, §4

[13] = tested on: Leishmania (Viannia) braziliensis; parameters: method as in Cazorla et al., 2004; conditions: hamsters infected with Leishmania (Viannia) braziliensis, versus Glucantime; ref Cazorla et al., 2004; cited from earlier work
[14] = tested on: L. major Empa-12 promastigotes; test: MTT-based promastigote viability assay, L. major Empa-12; format: cell-based; conditions: Leishmania major, Empa-12, 72 h, MTT
Source text: as §1, §2, §3, §4

[15] = read-out: THP-1-derived macrophages CC50
[16] = read-out: THP-1-derived macrophages CC50 (in brackets) (converted)
[17] = read-out: Amastigotes IC50 (in brackets) (converted)
[18] = read-out: Promastigotes IC50 (in brackets) (converted)

O=c1[nH]c2ccccc2n1CCCN1CCC(n2c(=O)[nH]c3cc(Cl)ccc32)CC1 [Domperidone]
Effect on promastigote viability [1]: dose-dependent decrease of parasite viability | Serum markers in dogs (L. infantum [2]): improve serum creatinine and to reduce anti-L. infantum antibody titers, globulins, gamma globulins, and C-reactive protein (CRP) | Concentration at which cytotoxic effects start ([3]; 24 h of incubation): 25 µg/mL | Concentration at which cytotoxic effects start ([3]; 48 h of incubation): 25 µg/mL | Concentration at which cytotoxic effects start ([3]; 72 h of incubation): 25 µg/mL | CC50 at 72 h [4, 15]: 26.5 ± 2.6 µg/mL | CC50 at 72 h [4, 16]: 62.4 µM | Clinical outcome in dogs (L. infantum [5]): effectively reduced clinical symptoms and antibody levels

OC(Cn1cncn1)(Cn1cncn1)c1ccc(F)cc1F [Fluconazole]
IC50 [6]: 140 ± 50 µM

CCCCOc1cc(C(=O)NCCN(CC)CC)c2ccccc2n1 [Dibucaine]
IC50 ([7]; read-out: Promastigotes IC50): 1.05 ± 0.06 µg/mL | IC50 ([7]; read-out: Promastigotes IC50 (in brackets)): 2760 nM | Selectivity index (SI), span over strains [8]: > 25 | Selectivity Index (SI) ([9]; CC50 THP-1 / IC50 amastigotes Empa-12, 72 h): 27.35 | IC50 ([9]; read-out: Amastigotes IC50): 0.83 ± 0.05 µg/mL | IC50 [9, 17]: 2190 nM | IC50 ([1]; Leishmania infantum, LV50, Drep-14, Empa-12, MTT, read-out: Promastigotes IC50, span over the three strains): 0.58 to 1.05 µg/mL (≈ 1.69 to 3.06 µM) | Effect on promastigote viability [1]: dose-dependent decrease of parasite viability | IC50 ([10]; read-out: Amastigotes IC50): 0.9 ± 0.03 µg/mL | IC50 [10, 17]: 2370 nM | Selectivity Index (SI) ([11]; CC50 THP-1 / IC50 amastigotes LV50, 72 h): 31.97 | IC50 ([11]; read-out: Amastigotes IC50): 0.71 ± 0.09 µg/mL | IC50 [11, 17]: 1870 nM | IC50 ([12]; read-out: Promastigotes IC50): 0.58 ± 0.02 µg/mL | IC50 [12, 18]: 1530 nM | Concentration at which cytotoxic effects start ([3]; 24 h of incubation): 30 µg/mL | Concentration at which cytotoxic effects start ([3]; 48 h of incubation): 30 µg/mL | Concentration at which cytotoxic effects start ([3]; 72 h of incubation): 15 µg/mL | CC50 at 72 h [4, 15]: 22.7 ± 1.08 µg/mL | CC50 at 72 h [4, 16]: 59.7 µM | Efficacy of intralesional treatment in hamsters [13]: comparable to the standard dosages of Glucantime | IC50 ([14]; read-out: Promastigotes IC50): 1.04 ± 0.09 µg/mL | IC50 [14, 18]: 2740 nM

Source: publication PMC11464777, “Approved drugs successfully repurposed against Leishmania based on machine learning predictions” (Frontiers in Cellular and Infection Microbiology, 2024)
